Experimental data reported in patent publication US10945992B1, “Dosage forms of rofecoxib and related methods” (Tremeau Pharmaceuticals, Inc., priority 2019, dated 2021).
Like-named read-outs stand apart in the source and are kept apart here.

Key:
Solubility of rofecoxib = assay type: physicochemical
Experimental: In some embodiments, rofecoxib is a white to off-white to light yellow powder. […] The 50 mg tablets may also contain red ferric oxide. […] Added as preservatives are sodium methylparaben about 0.13% and sodium propylparaben about 0.02%.
https://www.ccdc.cam.ac.uk/structures/Search?Compound=Rofecoxib&DatabaseToSearch=Published). […] Rofecoxib has no ionizable moieties and cannot form salts; the solubility of rofecoxib cannot be increased by changing pH. Therefore, in some embodiments, rofecoxib is micronized in the final step of the manufacturing process in order to increase dissolution rate. Description of Manufacturing Process and Process Controls for Rofecoxib Tablets

[1] = LC-MS/MS method validation: stability of rofecoxib; assay type: physicochemical, human
From the text: In order to support clinical studies with TRM-201 (rofecoxib), a method was developed for the determination of rofecoxib in human plasma by LC-MS/MS. This method was validated in accordance with the FDA Good Laboratory Practice Regulations (GLP) as set forth in Title 21 of the U S. Code of Federal Regulations Part 58 as well as FDA Guidance for Industry: Bioanalytical Method Validation, May 2018.

[2] = cited from earlier work
COX-2 = COX-2 (Homo sapiens, UniProt P35354); conditions: at therapeutic concentrations; cited from earlier work
COX-2, sequence (P35354 18-604): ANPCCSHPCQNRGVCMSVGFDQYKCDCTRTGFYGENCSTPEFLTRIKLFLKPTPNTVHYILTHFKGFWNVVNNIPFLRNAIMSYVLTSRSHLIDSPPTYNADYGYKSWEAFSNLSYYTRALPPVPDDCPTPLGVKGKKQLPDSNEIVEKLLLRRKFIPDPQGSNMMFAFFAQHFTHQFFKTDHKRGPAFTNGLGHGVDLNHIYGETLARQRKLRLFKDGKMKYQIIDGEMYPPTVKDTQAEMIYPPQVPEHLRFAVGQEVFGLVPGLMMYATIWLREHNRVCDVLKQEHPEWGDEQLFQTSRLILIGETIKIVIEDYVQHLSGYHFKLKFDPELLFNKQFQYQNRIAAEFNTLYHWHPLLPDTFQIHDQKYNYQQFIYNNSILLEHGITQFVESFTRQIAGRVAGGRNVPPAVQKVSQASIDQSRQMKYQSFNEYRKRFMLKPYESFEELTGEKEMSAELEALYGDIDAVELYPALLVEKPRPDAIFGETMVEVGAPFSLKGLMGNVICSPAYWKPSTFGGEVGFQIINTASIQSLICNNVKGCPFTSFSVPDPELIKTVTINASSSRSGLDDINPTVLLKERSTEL

## CS(=O)(=O)c1ccc(C2=C(c3ccccc3)C(=O)OC2)cc1 [TRM-201, 4-[4-(methylsulfonyl)phenyl]-3-phenyl-2(5H)-furanone]
Solubility of rofecoxib; acetone
  solubility: sparingly soluble
Solubility of rofecoxib; ethanol
  solubility: very slightly soluble
Solubility of rofecoxib; isopropyl acetate
  solubility: slightly soluble
Solubility of rofecoxib; methanol
  solubility: slightly soluble
Solubility of rofecoxib; octanol
  solubility: practically insoluble
Solubility of rofecoxib; water, listed as Rofecoxib
  solubility: practically insoluble
Solubility of rofecoxib; water, listed as rofecoxib
  solubility: insoluble
Solubility of rofecoxib; water, read-out: solubility in water
  solubility: < 100 µg/mL
[1]; at 4° C.
  Processed Sample Stability: 174 Hours at 4 °C
[1]; at Ambient Temperature
  Stock Solution Stability in Dimethyl Sulfoxide: 17 Hours at Ambient Temperature
[1]; at Ambient Temperature, human plasma
  Benchtop Stability in Plasma: 26 Hours at Ambient Temperature
[1]; at −20° C.
  Stock Solution Stability in Dimethyl Sulfoxide: 202 Days at −20 °C
[1]; at −20° C. and −70° C.
  Freeze/Thaw Stability in Plasma: 5 Cycles at −20 °C and −70 °C
  Long-term Storage Stability in Plasma: 184 Days at −20 °C and −70 °C
[1]; in an Ice Bath when Centrifuged at 4° C. or Ambient Temperature
  Benchtop Stability in Whole Blood: 2 Hours in an Ice Bath when
[2]; FDA 2005
  incidence of gastrointestinal (GI) ulcers visualized at endoscopy compared to certain non-selective NSAIDs: reduction
[2]; following chronic use, FDA 2005
  risk of serious GI bleeding compared to a non-selective NSAID (naproxen): reduce the risk
[2]; long-term controlled clinical trial / FDA 2005
  risk of serious adverse cardiovascular events compared to placebo: increased risk
COX-2
  inhibition of COX-2: inhibits COX-2
